Data published in paper PMC8122397, “Synthesis of New Triazolopyrazine Antimalarial Compounds” (Molecules, 2021).
Where two headings read alike, the source gives them in different places. Blank lines part the entries; values can stand above or below the compound they belong to.

Experiments:
[1] = test system: Pf 3D7; details: cited from earlier work
[2] = test system: Plasmodium falciparum 3D7 (chloroquine-sensitive strain); experiment: In vitro anti-plasmodial image-based asexual assay, 3D7 strain; assay type: cell-based; details: for inhibition at 80 µM / IC50: 3D7 strain; for inhibition at 80 µM: top dose of 80 µM, read-out: Pf 3D7 inhibition at the top dose; for IC50: 72 h
Procedure: (§1) The semisynthesized/functionalized triazolopyrazine compounds and the scaffold triazolopyrazine precursors, compounds 1–18, were tested for their antimalarial activity against the 3D7 (chloroquine-sensitive strain) and Dd2 (chloroquine, pyrimethamine, and mefloquine resistant strain) P. falciparum. Where an accurate IC50 value could not be determined due to 100% growth inhibition and a plateau not being reached, but where ≥90% growth inhibition was attained at the top screening concentration, an estimated IC50 value was calculated.
(§2) Plsamodium falciparum 3D7 and Dd2 parasites were cultured in RPMI1640 (Life Technologies, Camarillo, CA, USA) supplemented with 2.5 mg/mL Albumax II, 5% AB human serum, 25 mM HEPES, and 0.37mM hypoxanthine. Ring stage parasites were treated with compounds following two rounds of sorbitol synchronization, as previously described. Artesunate and pyrimethamine were incorporated as controls. Following incubation of assay plates for 72 h at 37 °C, and 5% CO2 and 5% O2, parasites were stained with 2-(4-amidinophenyl)-1H-indole-6-carboxamidine (DAPI) and imaged using an Opera QEHS confocal imaging system (PerkinElmer, Waltham, MA, USA). Images were analyzed, as previously described, using Acapella spot detection software (PerkinElmer, Waltham, MA, USA).
(§3) Normalizing of raw data used the in-plate positive (5 μM puromycin 100% inhibition) and negative (0.4% DMSO–no inhibition) controls to obtain percent inhibition and then used to calculate IC50 values through a 4 parameter logistic curve fitting in GraphPad Prism v.6.

[3] = test system: Plasmodium falciparum Dd2 (chloroquine, pyrimethamine, and mefloquine drug-resistant strain); experiment: In vitro anti-plasmodial image-based asexual assay, Dd2 strain; assay type: cell-based; details: for Dd2 potency compared to the 3D7 results, in words: Dd2 versus 3D7; for IC50 / inhibition at 80 µM: Plasmodium falciparum, Dd2 strain; for IC50: 72 h; for inhibition at 80 µM: top dose of 80 µM, read-out: Pf Dd2 inhibition at the top dose
Procedure: as §1, §2, §3

[4] = test system: Plasmodium falciparum (Pf); design: method as in earlier work; details: OSM master compounds' list; read-out: Pf activity IC50, previously reported OSM data; cited from earlier work
[5] = in vitro, read-out: IC50 (Pf 3D7), Figure 1
[6] = Plasmodium falciparum, 3D7, 72 h, read-out: Pf 3D7 IC50 ± SD
[7] = Plasmodium falciparum, 3D7, 72 h, estimated IC50 as only ~90% inhibition reached at the top dose of 80 µM, read-out: Pf 3D7 IC50 ± SD (estimated, footnote d)
[8] = estimated IC50 as only ~90% inhibition reached at the top dose of 80 µM, read-out: Pf 3D7 IC50 ± SD (estimated, footnote d)
[9] = Plasmodium falciparum, 3D7, 72 h, controls, read-out: Pf 3D7 IC50 ± SD (controls)
[10] = controls, read-out: Pf Dd2 IC50 ± SD (controls)

melting point: 203 to 205 °C
Structure (SMILES): FC1(F)CCC(c2nccn3c(-c4ccc(Cl)cc4)nnc23)CC1 [Compound 18, 3-(4-Chlorophenyl)-8-(4,4-difluorocyclohexyl)-[1,2,4]triazolo[4,3-a]pyrazine]
antimalarial activity in words ([2]; 3D7): limited activity
inhibition at 80 µM ([2]; Plasmodium falciparum): < 41%

IC50 ([2]; read-out: Pf 3D7 IC50 ± SD): 12.5 ± 0.58 µM
IC50 [2, 6]: 12.5 µM
IC50 ([3]; read-out: Pf Dd2 IC50 ± SD): 31.2 ± 0.82 µM
Structure (SMILES): Cc1ncc(Cl)n2c(-c3ccc(OC(F)F)cc3)nnc12 [Compound 11, 5-Chloro-3-[(4-difluoromethoxy)phenyl]-8-methyl-[1,2,4]triazolo[4,3-α]pyrazine]
Dd2 potency compared to the 3D7 results, in words [3]: large decreases in potency

IC50 [2, 7]: 27.3 ± 0.82 µM
IC50 ([3]; read-out: Pf Dd2 IC50 ± SD): 38.2 ± 0.61 µM
Structure (SMILES): Cc1ncc(Cl)n2c(-c3ccc(C#N)cc3)nnc12 [Compound 10, 4-(5-Chloro-8-methyl-1,2,4-triazolo[4,3-α]pyrazin-3-yl)benzonitrile]

IC50 [2, 6]: 12.6 µM
IC50 ([3]; read-out: Pf Dd2 IC50 ± SD): 14.3 ± 0.62 µM
Structure (SMILES): Clc1ccc(-c2nnc3cncc(Cl)n23)cc1 [Compound 7]

IC50 [2, 7]: 20.2 ± 2.86 µM
Structure (SMILES): FC1(F)CCC(c2ncc(Cl)n3c(-c4ccc(Cl)cc4)nnc23)CC1 [Compound 17, 5-Chloro-3-(4-chlorophenyl)-8-(4,4-difluorocyclohexyl)-[1,2,4]triazolo[4,3-a]pyrazine]
antimalarial activity in words ([2]; 3D7): limited activity
Dd2 potency compared to the 3D7 results, in words [3]: large decreases in potency
inhibition at 80 µM [3]: < 41%

IC50 [2, 8]: 11 ± 0.56 µM
IC50 [2, 7]: 11.1 µM
IC50 ([3]; read-out: Pf Dd2 IC50 ± SD): 8.2 ± 0.6 µM
Structure (SMILES): Cc1ncc(OCCc2ccccc2)n2c(-c3ccc(OC(F)F)cc3)nnc12 [Compound 13, 3-[4-(Difluoromethoxy)phenyl]-8-methyl-5-(2-phenylethoxy)-[1,2,4]triazolo[4,3-a]pyrazine]
fold decrease in potency on methylation ([2]; 3D7, compared with compound 2): 37 fold
Dd2 potency compared to the 3D7 results, in words [3]: slight increase in potency

IC50 [2, 8]: 18.9 ± 0.66 µM
IC50 [2, 7]: 18.9 µM
IC50 ([3]; read-out: Pf Dd2 IC50 ± SD): 25.9 ± 0.74 µM
Structure (SMILES): N#Cc1ccc(-c2nnc3cncc(Cl)n23)cc1 [Compound 9]

IC50 [2, 6]: 4.84 ± 0.13 µM
IC50 ([3]; read-out: Pf Dd2 IC50 ± SD): 6.18 ± 0.09 µM
Structure (SMILES): FC(F)(F)c1ncc(Cl)n2c(-c3ccc(Cl)cc3)nnc12 [Compound 14, 5-Chloro-3-(4-chlorophenyl)-8-(trifluoromethyl)-[1,2,4]triazolo[4,3-α]pyrazine]

IC50 [2, 9]: 0.0953 ± 0.00145 µM
IC50 [3, 10]: 0.101 ± 0.0028 µM
Structure (SMILES): COc1ccc(C[C@H](N)C(=O)N[C@H]2[C@@H](O)[C@H](n3cnc4c(N(C)C)ncnc43)O[C@@H]2CO)cc1 [Puromycin, reference compound]

IC50 [2, 9]: 0.01208 ± 4e-05 µM
Structure (SMILES): CCc1nc(N)nc(N)c1-c1ccc(Cl)cc1 [Pyrimethamine, reference compound]
inhibition at 80 µM [3]: < 41%

IC50 ([2]; read-out: Pf 3D7 IC50 ± SD): 1.72 ± 0.02 µM
IC50 [2, 6]: 1.7 µM
IC50 ([3]; read-out: Pf Dd2 IC50 ± SD): 2.58 ± 0.07 µM
Structure (SMILES): CC(F)(F)c1ncc(Cl)n2c(-c3ccc(Cl)cc3)nnc12 [Compound 15, 5-Chloro-3-(4-chlorophenyl)-8-(1,1-difluoroethyl)-[1,2,4]triazolo[4,3-a]pyrazine]
fold improvement in potency compared to the parent scaffold ([2]; 3D7, compared with scaffold 7): 7.3 fold

IC50 [2, 6]: 6.4 ± 0.1 µM
IC50 ([3]; read-out: Pf Dd2 IC50 ± SD): 24.7 ± 0.15 µM
Structure (SMILES): CC(F)(F)c1nccn2c(-c3ccc(Cl)cc3)nnc12 [Compound 16, 3-(4-Chlorophenyl)-8-(1,1-difluoroethyl)-[1,2,4]triazolo[4,3-a]pyrazine]
Dd2 potency compared to the 3D7 results, in words [3]: large decreases in potency

IC50 [2, 7]: 19.2 ± 0.28 µM
IC50 ([3]; read-out: Pf Dd2 IC50 ± SD): 32.4 ± 1.44 µM
Structure (SMILES): Cc1ncc(Cl)n2c(-c3ccc(Cl)cc3)nnc12 [Compound 8, 5-Chloro-3-(4-chlorophenyl)-8-methyl-[1,2,4]triazolo[4,3-α]pyrazine]

Second part, the compound before the results:

Structure (SMILES): OC(COc1cncc2nnc(-c3ccc(OC(F)F)cc3)n12)c1ccc(F)c(F)c1 (stereo not shown) [OSM-S-390]
IC50 [1, 5]: 0.07 µM

Structure (SMILES): FC(F)Oc1ccc(-c2nnc3cncc(OCC(F)(F)F)n23)cc1 [Compound 3, 3-[(4-Difluoromethoxy)phenyl]-5-(2,2,2,-trifluroethoxy)-[1,2,4]triazolo[4,3-α]pyrazine]
IC50 ([2]; read-out: Pf 3D7 IC50 ± SD): 16.6 ± 1.02 µM
IC50 [2, 6]: 16.7 µM
IC50 ([3]; read-out: Pf Dd2 IC50 ± SD): 21.2 ± 5.41 µM
melting point: 169 to 170 °C
IC50 [4]: 10 µM

Structure (SMILES): Cc1ncc(OCC(F)(F)F)n2c(-c3ccc(OC(F)F)cc3)nnc12 [Compound 12, 3-[4-(Difluoromethoxy)phenyl]-8-methyl-5-(2,2,2-trifluoroethoxy)-[1,2,4]triazolo[4,3-a]pyrazine]
growth inhibition at the top screening concentration ([2]; 3D7, predicted IC50 value not calculated): < 90%
Dd2 potency compared to the 3D7 results, in words [3]: large decreases in potency
inhibition at 80 µM [3]: < 41%

Structure (SMILES): FC(F)Oc1ccc(-c2nnc3cncc(OCCc4ccccc4)n23)cc1 [Compound 2, 3-[4-(Difluoromethoxy)phenyl]-5-(2-phenylethoxy)-[1,2,4]triazolo[4,3-α]pyrazine]
IC50 [1, 5]: 0.3 µM
IC50 ([1]; read-out: IC50 against Pf 3D7, previously reported): 0.301 µM
IC50 ([2]; read-out: Pf 3D7 IC50 ± SD): 0.31 ± 0.01 µM
IC50 [2, 6]: 0.3 µM
IC50 ([3]; read-out: Pf Dd2 IC50 ± SD): 0.54 ± 0.02 µM

Structure (SMILES): OCC(COc1cncc2nnc(-c3ccc(OC(F)F)cc3)n12)c1ccccc1 (stereo not shown) [OSM-LO-13]
IC50 [1, 5]: 0.279 µM

Structure (SMILES): Fc1ccc([C@@H](COc2cncc3nnc(-c4ccc(OC(F)F)cc4)n23)OC(F)F)cc1F [OSM-S-377]
IC50 [1, 5]: 0.016 µM

Structure (SMILES): FC(F)Oc1ccc(-c2nnc3cncc(Cl)n23)cc1 [Compound 1]
IC50 [2, 8]: 16.8 ± 1.25 µM
IC50 [2, 7]: 16.8 µM
IC50 ([3]; read-out: Pf Dd2 IC50 ± SD): 22.8 ± 13.7 µM

Structure (SMILES): C[Si](C)(C)CCOc1nccn2c(-c3ccc(OC(F)F)cc3)nnc12 [Compound 6, 3-[4-(Difluoromethoxy)phenyl]-8-[2-(trimethylsilyl)ethoxy)-[1,2,4]triazolo[4,3-α]pyrazine]
inhibition at 80 µM ([2]; Plasmodium falciparum): < 41%

Structure (SMILES): C[C@H]1[C@H](OC(=O)CCC(=O)O)O[C@@H]2O[C@@]3(C)CC[C@H]4[C@H](C)CC[C@@H]1[C@@]24OO3 [Artesunate, reference compound]
IC50 [2, 9]: 0.00348 ± 0.00014 µM
IC50 [3, 10]: 0.002 ± 0.0001 µM

Structure (SMILES): C[Si](C)(C)CCOc1cncc2nnc(-c3ccc(OC(F)F)cc3)n12 [Compound 5]
IC50 [2, 6]: 13.9 ± 0.87 µM
Dd2 potency compared to the 3D7 results, in words [3]: large decreases in potency
melting point: 135 °C

Structure (SMILES): Oc1nccn2c(-c3ccc(OC(F)F)cc3)nnc12 [Compound 4, 3-[4-(Difluoromethoxy)phenyl]-[1,2,4]triazolo[4,3-α]pyrazin-8-ol]
inhibition at 80 µM ([2]; Plasmodium falciparum): < 41%
